Reference: US20210087565A1, “ANTISENSE ANTIBIOTICS AND BACTERIAL SECRETION BASED DELIVERY SYSTEM TO ELIMINATE DRUG-RESISTANT BACTERIA” (priority 2018, published 2021)
“Also recorded” adds a separate entry of the source.

Legend:
[1] = system: ESBL KPN; assay: PNA growth assay (optical density) on clinical isolate; assay type: cell-based, Klebsiella pneumoniae
Method: Bacterial Cell culture: The clinical isolates were obtained from the lab of Nancy Madinger at the University of Colorado Anschutz campus. Clinical isolates were grown in Cation Adjusted Mueller Hinton broth (CAMHB) (Becton, Dickinson and Company 212322) at 37° C. with 225 rpm shaking or on solid CAMHB with 1.5% agar at 37° C. Clinical isolates were maintained as freezer stocks in 90% CAMHB, 10% glycerol at −80° C. Freezer stocks were streaked out onto solid CAMHB and incubated for 16 h to produce single colonies prior to experiments. For each biological replicate, a single colony was picked from solid media and grown for 16 h in liquid CAMHB prior to experiments. Non-clinical isolates, such as E. coli MG1655 (ATCC700926) and Salmonella entorica serovar typhimurium SL1344, were cultured in liquid 2% lysogeny broth (LB) or on 2% LB with 1.5% agar for solid plates. S. typhimurium cultures were supplemented with 30 μg/mL streptomycin and SL1344 strains containing plasmids pFPV (SL1344-mCherry) or pRG1 modified with a lacIq promoter (SL1344-Holin) were supplemented with 100 μg/mL ampicillin. Freezer stocks were stored in 60% LB broth, 40% glycerol at −80° C. Freezer stocks were streaked out onto solid LB and incubated for 16 h to produce single colonies before experiments. For biological replicates, single colonies were started in liquid LB and grown for 16 hours prior to experiments. E. coli MG1655 PNA growth experiments were carried out in M9 media (1×M9 minimal media salts solution (MP Biomedicals), 2.0 mM MgSO4, and 0.1 mM CaCl2 in sterile water) with 0.4% glucose.
PNA growth assay: Biological replicates were diluted 1:10,000 into treatment condition in 384-well plates and measured for 24 h in a Tecan GENios at 562 nm with a bandwidth of 35 nm. Media absorbance blanks were subtracted from data prior to analysis. Normalized optical density (OD) data is shown normalized to the time point where the “no treatment” growth curves reached saturation phase which varied across biological replicates.

[2] = system: HeLa cells; assay: Cytotoxicity in HeLa cells (lactate dehydrogenase assay); assay type: cell-based, human; details: for lethality to human epithelial cells (in words): HeLa, range of concentrations
Method: FIG. 12. Cytotoxicity measurement of varying concentration of PNA in HeLa cells. HeLa cells were plated on tissue culture treated 96-well plates at 4,500 cells per well. Varying concentrations of α-lexA and α-nonsense were added exogenously after 24 hours of growth and incubated in growth conditions for 18 hours. Cytotoxicity was measured using a lactate dehydrogenase assay and absorbance read at 450 nm with a blank (growth media with lactate dehydrogenase assay) subtracted. […] Error bars are standard deviation.

[3] = system: 60 nucleotide single-stranded DNA fragments containing the complementation site; assay: Electrophoretic mobility shift assay (EMSA); assay type: binding; details: PNA 1 μM, DNA fragments 500 nM; complementary vs nonsense DNA
Method: FIG. 5. PNA binding to off-target start codons. (A) The set of potential PNA candidates identified from the Keio collection were screened against the entire E. coli MG1655 genome to identify the distribution of off-target alignments when allowing for zero base mismatches in the alignment (left) and one base mismatch (right). In the 0-basepair mismatch analysis, all chosen PNAs that were tested had no other start codon alignments within the genome, whereas in the one base mismatch alignment, the number of start codon alignments distribute across zero to five alignments. (B) Electrophoretic mobility shift assay (EMSA) depicting 60 nucleotide single-stranded DNA fragments containing the complementation site for their corresponding PNA. Nonsense DNA was a random 60 nucleotide single-stranded DNA sequence that contained no complementation sites for PNA binding. […] Bands corresponding to PNA+complementary DNA are shifted above the unbound DNA (red triangles). Corresponding PNA+nonsense DNA bands are seen in lanes 3 and 5, with lane 3 having slight cross-over bands coming from lane 2. All lanes are from the same gel.
Gel Shift Mobility Assay: Synthetic DNA oligonucleotides that are 57-60 nucleotides in length were incubated with their respective PNA binding site at 37° C. overnight. The concentration of the DNA fragments was held at 500 nM, while the PNA was always in excess at 1 μM. […]

| Substance | monotherapy effect (in words) ([1]; 10 μM) | concentration up to which no significant difference in cytotoxicity to negative control was seen ([2]; HeLa cells, 18 hours, lactate dehydrogenase assay, p>0.05) | lethality to human epithelial cells (in words) [2] | binding specificity by EMSA (in words) [3] | growth inhibition ([1]; 10 μM PNA, optical density vs no treatment at 16 hours) |
| --- | --- | --- | --- | --- | --- |
| α-lexA: 12-mer antisense PNA cGGAATGAAAGC (SEQ ID NO. 17) targeting lexA, conjugated to (KFF)3K cell penetrating peptide via AEEA-linker (antisense CGGAATGAAAGC; all peptide nucleic acid (PNA); (KFF)3K cell-penetrating peptide attached via AEEA linker) | no or minimal growth inhibition | up to 40 μM | not found to be lethal | showed specificity to their targets; also recorded: show binding specificity to their target | – |
| α-rpsD: 12-mer antisense PNA AGAAAATGGCAA (SEQ ID NO. 19) targeting rpsD, conjugated to (KFF)3K cell penetrating peptide via AEEA-linker (all peptide nucleic acid (PNA); (KFF)3K cell-penetrating peptide attached via AEEA linker) | – | – | not found to be lethal | showed specificity to their targets; also recorded: show binding specificity to their target | 82%±8.8 |
